Experimental data published in ChEMBL document CHEMBL1136415, “3-Acylamino-azetidin-2-one as a novel class of cysteine proteases inhibitors” (Bioorg Med Chem Lett, 2003).

Assays:
Procathepsin L = Procathepsin L (Homo sapiens, UniProt P07711); experiment: Inhibition of recombinant human Cathepsin L
Cathepsin K = target: T1, Cathepsin K (Homo sapiens, UniProt P43235); experiment: Inhibition of recombinant human Cathepsin K
T1 sequence (P43235 whole entry): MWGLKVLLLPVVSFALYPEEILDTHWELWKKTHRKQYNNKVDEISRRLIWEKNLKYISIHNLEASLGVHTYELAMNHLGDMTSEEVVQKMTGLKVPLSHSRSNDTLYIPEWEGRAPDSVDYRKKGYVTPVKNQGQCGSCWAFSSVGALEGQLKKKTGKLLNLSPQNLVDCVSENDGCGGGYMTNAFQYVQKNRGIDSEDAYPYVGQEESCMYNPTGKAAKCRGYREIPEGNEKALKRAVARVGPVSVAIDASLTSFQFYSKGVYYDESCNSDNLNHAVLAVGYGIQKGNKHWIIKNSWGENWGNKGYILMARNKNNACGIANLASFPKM

Cathepsin S = Cathepsin S (Homo sapiens, UniProt P25774); experiment: Inhibition of recombinant human cathepsin S
Neutrophil elastase = target: T2, Neutrophil elastase (Homo sapiens, UniProt P08246); experiment: Inhibition of human leukocyte elastase(HLE)
T2 sequence (P08246 whole entry): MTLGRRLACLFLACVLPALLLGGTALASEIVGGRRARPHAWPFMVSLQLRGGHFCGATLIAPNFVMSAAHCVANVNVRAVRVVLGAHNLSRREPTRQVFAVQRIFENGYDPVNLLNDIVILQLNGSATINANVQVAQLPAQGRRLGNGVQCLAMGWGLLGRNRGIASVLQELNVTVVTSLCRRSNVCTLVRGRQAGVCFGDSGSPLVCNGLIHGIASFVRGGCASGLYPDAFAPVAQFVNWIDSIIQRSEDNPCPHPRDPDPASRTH

Cathepsin B = Cathepsin B (Rattus norvegicus, UniProt P00787); experiment: Inhibition of recombinant rat Cathepsin B
Sequence of Cathepsin B (P00787 whole entry): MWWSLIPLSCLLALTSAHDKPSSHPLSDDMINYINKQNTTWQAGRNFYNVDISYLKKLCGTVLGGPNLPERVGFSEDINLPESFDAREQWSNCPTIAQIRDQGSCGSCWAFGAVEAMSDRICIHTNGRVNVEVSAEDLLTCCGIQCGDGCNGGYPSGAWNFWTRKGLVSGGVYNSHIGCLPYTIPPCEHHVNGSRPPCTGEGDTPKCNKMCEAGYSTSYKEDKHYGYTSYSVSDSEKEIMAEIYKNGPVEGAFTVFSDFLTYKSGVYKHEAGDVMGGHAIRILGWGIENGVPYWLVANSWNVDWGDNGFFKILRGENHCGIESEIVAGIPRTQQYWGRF

Sequence of Procathepsin L (P07711 whole entry): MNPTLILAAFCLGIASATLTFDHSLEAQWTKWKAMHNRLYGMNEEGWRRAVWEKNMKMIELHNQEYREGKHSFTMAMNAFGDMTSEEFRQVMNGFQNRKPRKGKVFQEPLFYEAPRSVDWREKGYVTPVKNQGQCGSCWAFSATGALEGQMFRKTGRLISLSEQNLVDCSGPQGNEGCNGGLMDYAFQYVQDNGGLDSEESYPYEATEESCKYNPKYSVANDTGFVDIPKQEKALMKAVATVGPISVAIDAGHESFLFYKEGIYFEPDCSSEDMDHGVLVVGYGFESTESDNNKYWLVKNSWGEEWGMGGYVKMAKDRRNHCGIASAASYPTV
Sequence of Cathepsin S (P25774 whole entry): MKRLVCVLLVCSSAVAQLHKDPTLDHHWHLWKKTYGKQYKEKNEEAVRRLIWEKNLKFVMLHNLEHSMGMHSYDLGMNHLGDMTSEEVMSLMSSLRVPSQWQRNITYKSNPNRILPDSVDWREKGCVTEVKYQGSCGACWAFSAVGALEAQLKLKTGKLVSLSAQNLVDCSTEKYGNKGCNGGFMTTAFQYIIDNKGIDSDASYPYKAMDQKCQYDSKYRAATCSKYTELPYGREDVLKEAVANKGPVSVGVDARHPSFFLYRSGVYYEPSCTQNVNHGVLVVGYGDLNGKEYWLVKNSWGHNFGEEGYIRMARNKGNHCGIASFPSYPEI

IC50 (Procathepsin L) [nM]	IC50 (Cathepsin K) [nM]	IC50 (Cathepsin S) [nM]	IC50 (Neutrophil elastase) [nM]	IC50 (Cathepsin B) [nM]	SMILES
163	100	355	> 50000	7010	CCCCO[C@@H]1NC(=O)[C@H]1NC(=O)[C@H](Cc1ccccc1)NC(=O)OCc1ccccc1
			> 50000	2700	O=C(N[C@@H](Cc1ccccc1)C(=O)N[C@H]1CNC1=O)OCc1ccccc1
780	2500	> 2500	> 50000	11400	CC(C)(C)O[C@@H]1NC(=O)[C@H]1NC(=O)[C@H](Cc1ccccc1)NC(=O)OCc1ccccc1
166	100	20	> 50000	27500	O=C(N[C@@H](Cc1ccccc1)C(=O)N[C@@H]1C(=O)N[C@H]1OC(=O)c1ccccc1)OCc1ccccc1
47	38	41	> 50000	9710	O=C(CCc1ccccc1)O[C@@H]1NC(=O)[C@H]1NC(=O)[C@H](Cc1ccccc1)NC(=O)OCc1ccccc1
	16		> 30000	430	O=C(N[C@@H](Cc1ccccc1)C(=O)N[C@@H]1C(=O)N[C@@H]1Oc1ccccc1)OCc1ccccc1
0.1	8.4	330	> 50000	10500	O=C(N[C@@H](Cc1ccccc1)C(=O)N[C@@H]1C(=O)N[C@H]1Sc1ccccc1)OCc1ccccc1
3960	2500	> 2500	> 50000	32600	O=C(N[C@@H](Cc1ccccc1)C(=O)N[C@@H]1C(=O)N[C@H]1OCc1ccccc1)OCc1ccccc1
42	100	207	> 10000	470	CC(=O)O[C@@H]1NC(=O)[C@H]1NC(=O)[C@H](Cc1ccccc1)NC(=O)OCc1ccccc1
	100	330	> 30000	10900	O=C(N[C@@H](Cc1ccccc1)C(=O)N[C@@H]1C(=O)N[C@H]1Oc1ccccc1)OCc1ccccc1
37400	> 5000	> 5000	> 50000	13600	O=C(N[C@@H](Cc1ccccc1)C(=O)N[C@@H]1CNC1=O)OCc1ccccc1
15	72	2500	> 50000	39700	O=C(N[C@@H](Cc1ccccc1)C(=O)N[C@@H]1C(=O)N[C@@H]1Sc1ccccc1)OCc1ccccc1
0.1	6.5	48	> 50000		O=C(N[C@@H](Cc1ccccc1)C(=O)N[C@@H]1C(=O)N[C@H]1S(=O)(=O)c1ccccc1)OCc1ccccc1
91	2300	> 2500	> 50000	6460	CC(C)CO[C@@H]1NC(=O)[C@H]1NC(=O)[C@H](Cc1ccccc1)NC(=O)OCc1ccccc1
